Key:
[1] = tested on: gastric antrum of male dogs; test: Effects on gastric motor activity (force transducers, conscious dogs, postcibal period); format: in vivo; details: dog, until 1 hour after administration, 30 minutes before administration = 100%
Text: (§1) Test 1 [Effects on Gastric and Colonic Motor Activity]
(§2) Force transducers (“F-12IS”, trade name; manufactured by Star Medical Technologies, Inc.) were chronically sutured in the gastric antrum and large intestines of male dogs (body weight: 9 to 11 kg, 5 to 6 dogs per group) (Itoh, Z. et al., Am. J. Dig. Dis. 22, 117-124, 1977). Contraction signals from the respective regions in postcibal period were amplified and recorded (“RTA-1200”, trade name; manufactured by Nihon Kohden Corporation). The contraction signals, which had been collected in a computer, were analyzed by using an analysis program (“DSSDDWHD V.30”, trade name; prepared by Nihon Kohden Corporation), whereby motor indexes were calculated. The test drugs were administered through catheters which had been chronically indwelled beforehand in the duodenum, respectively. Supposing that the coefficient of motor 30 minutes before the administration of drug was 100%, the results were calculated as percents of motor index until 1 hour after the administration.

[2] = tested on: large intestines of male dogs; test: Effects on colonic motor activity (force transducers, conscious dogs, postcibal period); format: in vivo; details: dog; for Percent of motor index, large intestine: until 1 hour after administration, 30 minutes before administration = 100%; for Effect on colonic motility (in words): intraduodenal, doses of Table 1
Text: as §1, §2

male SD rats = test: Effects on defecation in rats; format: in vivo, rat; details: 10 mg/kg intraperitoneal, dry stool weight until 60 minutes after administration, control average = 100%
Description: Test 2 [Effects on Defecation]
Test drugs were intraperitoneally administered to male SD rats (8 rats per group). Stools were recovered until 60 minutes after the administration, and their dry weights were measured. Supposing that that the average of stool weights in a control group was 100%, the averages of percent weights of individual test drug groups were calculated.

COc1cc(N)c(Cl)cc1C(=O)NC1CCN(CCCOc2ccc(F)cc2)CC1OC (stereo not drawn) [Cisapride, cisapride]
Percent of motor index, gastric antrum ([1]; 1 mg/kg intraduodenal): 158.7% | Percent of motor index, large intestine ([2]; 1 mg/kg intraduodenal): 114.5% | Effect on colonic motility (in words) [2]: no significant effect

COc1cc(O)c(C(=O)Nc2nc(C(=O)NCCN(C(C)C)C(C)C)cs2)cc1OC.Cl.O.O.O [Compound 1, N-(N′,N′-diisopropylaminoethyl)-[2-(2-hydroxy-4,5-dimethoxybenzoylamino)-1,3-thiazol-4-yl]carboxamide HCL trihydrate]
Percent of motor index, gastric antrum ([1]; 10 mg/kg intraduodenal): 163.7% | Percent of motor index, large intestine ([2]; 10 mg/kg intraduodenal): 136.1% | Percent stool weight (male SD rats): 361.8%

CC(C)N(CCNC(=O)c1csc(NC(=O)c2cccc(C#N)c2)n1)C(C)C.Cl [Compound 2, N-(N′,N′-diisopropylaminoethyl)-[2-(3-cyanobenzoyl-amino)-1,3-thiazol-4-yl]carboxamide hydrochloride]
Percent of motor index, gastric antrum ([1]; 10 mg/kg intraduodenal): 189.5% | Percent of motor index, large intestine ([2]; 10 mg/kg intraduodenal): 221.7% | Percent stool weight (male SD rats): 766.7%

CC(C)N(CCNC(=O)c1csc(NC(=O)c2cccc(N)c2)n1)C(C)C [Compound 3, N-(N′,N′-diisopropylaminoethyl)-[2-(3-aminobenzoyl-amino)-1,3-thiazol-4-yl]carboxamide]
Percent of motor index, gastric antrum ([1]; 10 mg/kg intraduodenal): 244.6% | Percent of motor index, large intestine ([2]; 10 mg/kg intraduodenal): 249.9% | Percent stool weight (male SD rats): 733.3%

COc1ccc(C(=O)NCc2ccc(OCCN(C)C)cc2)cc1OC [Itopride, itopride]
Percent of motor index, gastric antrum ([1]; 10 mg/kg intraduodenal): 132.7% | Percent of motor index, large intestine ([2]; 10 mg/kg intraduodenal): 122.1% | Effect on colonic motility (in words) [2]: no significant effect

CCOc1cc(N)c(Cl)cc1C(=O)NCC1CN(Cc2ccc(F)cc2)CCO1 (stereo not drawn) [Mosapride, mosapride]
Percent of motor index, gastric antrum ([1]; 3 mg/kg intraduodenal): 146.2% | Percent of motor index, large intestine ([2]; 3 mg/kg intraduodenal): 119.2% | Effect on colonic motility (in words) [2]: no significant effect

From patent publication US6673368B2, “Colonic motor dysfunction remedies comprising aminothiazole derivatives as active ingredients” (Zeria Phamaceutical Co., Ltd., priority 2000, dated 2004)
